{
  "source": "patent US20070049593A1",
  "about": "(priority 2004, published 2007)",
  "target": "T1, HCV polymerase (Hepatitis C virus genotype 1b, UniProt P26663)",
  "T1 construct": "a region encoding NS5B (J Virol 1991 March, 65(3), 1105-13, 544 amino acids after deletion of 47 amino acids on the C-terminal); 6xHis (C); made in house; host or cells: Escherichia coli",
  "T1 sequence (P26663 2420-2963)": "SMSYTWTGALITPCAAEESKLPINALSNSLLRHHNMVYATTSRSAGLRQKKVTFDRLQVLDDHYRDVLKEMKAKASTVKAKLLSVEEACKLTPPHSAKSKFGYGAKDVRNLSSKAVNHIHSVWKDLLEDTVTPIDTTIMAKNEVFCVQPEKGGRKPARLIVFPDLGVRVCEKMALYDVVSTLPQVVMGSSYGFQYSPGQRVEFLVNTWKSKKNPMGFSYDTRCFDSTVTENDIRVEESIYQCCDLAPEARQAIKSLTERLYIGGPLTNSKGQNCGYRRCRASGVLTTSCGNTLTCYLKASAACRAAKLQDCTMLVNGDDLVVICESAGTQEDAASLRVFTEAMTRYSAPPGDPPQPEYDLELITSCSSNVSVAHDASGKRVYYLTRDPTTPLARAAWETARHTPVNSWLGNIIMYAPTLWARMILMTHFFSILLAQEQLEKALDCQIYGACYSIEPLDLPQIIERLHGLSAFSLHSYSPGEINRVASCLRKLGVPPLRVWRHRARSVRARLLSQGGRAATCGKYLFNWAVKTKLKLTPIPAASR",
  "experiment": "biochemical",
  "set-up": "species or system HCV BK strain",
  "how_it_was_run": "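His-tagged NS5B (BK strain, 47-aa C-terminal deletion, E. coli-expressed) at 0.5 μg/ml copied 5 μg/ml run-off RNA bearing the HCV 3′ UTR with 2 μM UTP plus [3H]UTP, 50 μM ATP/GTP, in pH 7.5 Tris with 5 mM MgCl2, 25 °C, 90 min. TCA-precipitated RNA was counted and IC50 calculated.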",
  "key": {"[1]": {"details": "25° C., 90 min, [5,6-3H]UTP incorporation into RNA, read-out: HCV polymerase inhibitory activity IC50"}},
  "note": "Structures can show the parent of a compound that is named as a salt. Where two headings read alike, the source gives them in different places.",
  "data": [
    {"molecule": "CC(C)N1CCCC(OCCN2CCn3c(c(C4CCCCC4)c4ccc(C(=O)O)cc43)-c3ccc(Cl)cc32)C1", "note": "(stereo not shown) [Example 1-371, 3-chloro-13-cyclohexyl-5-[2-(1-isopropylpiperidin-3-yloxy)ethyl]-6,7-dihydro-5H-benzo[5,6][1,4]diazepino[7,1-a]indole-10-carboxylic acid]", "values": [
      {"measurement": "IC50", "result": "< 100", "unit": "nM"}
    ]},
    {"molecule": "CCC1CCCN(CCCN2CCn3c(c(C4CCCCC4)c4ccc(C(=O)O)cc43)-c3ccc(Cl)cc32)C1", "note": "(stereo not shown) [Example 1-372, 3-chloro-13-cyclohexyl-5-[3-(3-ethylpiperidin-1-yl)propyl]-6,7-dihydro-5H-benzo[5,6][1,4]diazepino[7,1-a]indole-10-carboxylic acid dihydrochloride]", "values": [
      {"measurement": "IC50", "result": "< 100", "unit": "nM"}
    ]},
    {"molecule": "CC(C)COc1ccc2c(c1)N(CCN1CCCCC1)CCn1c-2c(C2CCCCC2)c2ccc(C(=O)O)cc21", "note": "[Example 1-373, 13-cyclohexyl-3-isobutoxy-5-[2-(piperidin-1-yl)ethyl]-6,7-dihydro-5H-benzo[5,6][1,4]diazepino[7,1-a]indole-10-carboxylic acid dihydrochloride]", "values": [
      {"measurement": "IC50", "setting": "[1]", "result": "< 100", "unit": "nM"}
    ]},
    {"molecule": "Cc1cc(COc2ccc3c(c2)N(CCN(C)C)CCn2c-3c(C3CCCCC3)c3ccc(C(=O)O)cc32)no1", "note": "[Example 1-374, 13-cyclohexyl-5-(2-dimethylaminoethyl)-3-(5-methylisoxazol-3-ylmethoxy)-6,7-dihydro-5H-benzo[5,6][1,4]diazepino[7,1-a]indole-10-carboxylic acid dihydrochloride]", "values": [
      {"measurement": "IC50", "result": "< 100", "unit": "nM"}
    ]},
    {"molecule": "CC(C)COc1ccc2c(c1)N(CCN1CCCC(C)C1)CCn1c-2c(C2CCCCC2)c2ccc(C(=O)O)cc21", "note": "(stereo not shown) [Example 1-375, 13-cyclohexyl-3-isobutoxy-5-[2-(3-methylpiperidin-1-yl)ethyl]-6,7-dihydro-5H-benzo[5,6][1,4]diazepino[7,1-a]indole-10-carboxylic acid dihydrochloride]", "values": [
      {"measurement": "IC50", "result": "< 100", "unit": "nM"}
    ]},
    {"molecule": "CCC1CCCN(CCN2CCn3c(c(C4CCCCC4)c4ccc(C(=O)O)cc43)-c3ccc(OCC(C)C)cc32)C1", "note": "(stereo not shown) [Example 1-376, 13-cyclohexyl-5-[2-(3-ethylpiperidin-1-yl)ethyl]-3-isobutoxy-6,7-dihydro-5H-benzo[5,6][1,4]diazepino[7,1-a]indole-10-carboxylic acid dihydrochloride]", "values": [
      {"measurement": "IC50", "result": "< 100", "unit": "nM"}
    ]},
    {"molecule": "COCC1CCCN(CCN2CCn3c(c(C4CCCCC4)c4ccc(C(=O)O)cc43)-c3ccc(OCC(C)C)cc32)C1", "note": "(stereo not shown) [Example 1-377, 13-cyclohexyl-3-isobutoxy-5-[2-(3-methoxymethylpiperidin-1-yl)ethyl]-6,7-dihydro-5H-benzo[5,6][1,4]diazepino[7,1-a]indole-10-carboxylic acid dihydrochloride]", "values": [
      {"measurement": "IC50", "result": "< 100", "unit": "nM"}
    ]},
    {"molecule": "CCN(CC)CCCN1CCn2c(c(C3CCCCC3)c3ccc(C(=O)O)cc32)-c2ccc(C)cc21", "note": "[Example 1-378, 13-cyclohexyl-5-(3-diethylaminopropyl)-3-methyl-6,7-dihydro-5H-benzo[5,6][1,4]diazepino[7,1-a]indole-10-carboxylic acid dihydrochloride]", "values": [
      {"measurement": "IC50", "result": "< 100", "unit": "nM"}
    ]},
    {"molecule": "O=C(O)c1ccc2c(C3CCCCC3)c3n(c2c1)CCN(CCC1CCCN(C2CCCCC2)C1)c1cc(Cl)ccc1-3", "note": "(stereo not shown) [Example 1-379, 3-chloro-13-cyclohexyl-5-[2-(1-cyclohexylpiperidin-3-yl)ethyl]-6,7-dihydro-5H-benzo[5,6][1,4]diazepino[7,1-a]indole-10-carboxylic acid dihydrochloride]", "values": [
      {"measurement": "IC50", "result": "< 100", "unit": "nM"}
    ]},
    {"molecule": "Cc1ccc2c(c1)N(CCC1CCCN(C3CCCC3)C1)CCn1c-2c(C2CCCCC2)c2ccc(C(=O)O)cc21", "note": "(stereo not shown) [Example 1-380, 13-cyclohexyl-5-[2-(1-cyclopentylpiperidin-3-yl)ethyl]-3-methyl-6,7-dihydro-5H-benzo[5,6][1,4]diazepino[7,1-a]indole-10-carboxylic acid dihydrochloride]", "values": [
      {"measurement": "IC50", "result": "< 100", "unit": "nM"}
    ]},
    {"molecule": "CC(C)c1ccc2c(c1)N(CCC1CCCN(C(C)C)C1)CCn1c-2c(C2CCCCC2)c2ccc(C(=O)O)cc21", "note": "(stereo not shown) [Example 1-381, 13-cyclohexyl-3-isopropyl-5-[2-(1-isopropylpiperidin-3-yl)ethyl]-6,7-dihydro-5H-benzo[5,6][1,4]diazepino[7,1-a]indole-10-carboxylic acid dihydrochloride]", "values": [
      {"measurement": "IC50", "result": "< 100", "unit": "nM"}
    ]},
    {"molecule": "CCC1CCN(CCN2CCn3c(c(C4CCCCC4)c4ccc(C(=O)O)cc43)-c3ccccc32)C1", "note": "(stereo not shown) [Example 1-382, 13-cyclohexyl-5-[2-(3-ethylpyrrolidin-1-yl)ethyl]-6,7-dihydro-5H-benzo[5,6][1,4]diazepino[7,1-a]indole-10-carboxylic acid dihydrochloride]", "values": [
      {"measurement": "IC50", "result": "< 100", "unit": "nM"}
    ]},
    {"molecule": "CCC1CCN(CCN2CCn3c(c(C4CCCCC4)c4ccc(C(=O)O)cc43)-c3ccc(Cl)cc32)C1", "note": "(stereo not shown) [Example 1-383, 3-chloro-13-cyclohexyl-5-[2-(3-ethylpyrrolidin-1-yl)ethyl]-6,7-dihydro-5H-benzo[5,6][1,4]diazepino[7,1-a]indole-10-carboxylic acid dihydrochloride]", "values": [
      {"measurement": "IC50", "result": "< 100", "unit": "nM"}
    ]},
    {"molecule": "CCC1CCN(CCN2CCn3c(c(C4CCCCC4)c4ccc(C(=O)O)cc43)-c3ccc(C)cc32)C1", "note": "(stereo not shown) [Example 1-384, 13-cyclohexyl-5-[2-(3-ethylpyrrolidin-1-yl)ethyl]-3-methyl-6,7-dihydro-5H-benzo[5,6][1,4]diazepino[7,1-a]indole-10-carboxylic acid dihydrochloride]", "values": [
      {"measurement": "IC50", "result": "< 100", "unit": "nM"}
    ]},
    {"molecule": "CC(C)COc1ccc2c(c1)N(CCC1CCCN(C(C)C)C1)CCn1c-2c(C2CCCCC2)c2ccc(C(=O)O)cc21", "note": "(stereo not shown) [Example 1-385, 13-cyclohexyl-3-isobutoxy-5-[2-(1-isopropylpiperidin-3-yl)ethyl]-6,7-dihydro-5H-benzo[5,6][1,4]diazepino[7,1-a]indole-10-carboxylic acid dihydrochloride]", "values": [
      {"measurement": "IC50", "result": "< 100", "unit": "nM"}
    ]},
    {"molecule": "CCC(CC)N1CCCC(CCN2CCn3c(c(C4CCCCC4)c4ccc(C(=O)O)cc43)-c3ccc(Cl)cc32)C1", "note": "(stereo not shown) [Example 1-386, 3-chloro-13-cyclohexyl-5-{2-[1-(1-ethylpropyl)piperidin-3-yl]ethyl}-6,7-dihydro-5H-benzo[5,6][1,4]diazepino[7,1-a]indole-10-carboxylic acid dihydrochloride]", "values": [
      {"measurement": "IC50", "result": "< 100", "unit": "nM"}
    ]},
    {"molecule": "CCOCC1CCCN(CCN2CCn3c(c(C4CCCCC4)c4ccc(C(=O)O)cc43)-c3ccccc32)C1", "note": "(stereo not shown) [Example 1-387, 13-cyclohexyl-5-[2-(3-ethoxymethylpiperidin-1-yl)ethyl]-6,7-dihydro-5H-benzo[5,6][1,4]diazepino[7,1-a]indole-10-carboxylic acid dihydrochloride]", "values": [
      {"measurement": "IC50", "result": "< 100", "unit": "nM"}
    ]},
    {"molecule": "CCC1CCCN(CCN2CCn3c(c(C4CCCC4)c4ccc(C(=O)O)cc43)-c3ccc(Cl)cc32)C1", "note": "(stereo not shown) [Example 1-389, 3-chloro-13-cyclopentyl-5-[2-(3-ethylpiperidin-1-yl)ethyl]-6,7-dihydro-5H-benzo[5,6][1,4]diazepino[7,1-a]indole-10-carboxylic acid]", "values": [
      {"measurement": "IC50", "setting": "[1]", "result": "< 100", "unit": "nM"}
    ]},
    {"molecule": "COCC1CCCN(CCN2CCn3c(c(C4CCCC4)c4ccc(C(=O)O)cc43)-c3ccc(Cl)cc32)C1", "note": "(stereo not shown) [Example 1-390, 3-chloro-13-cyclopentyl-5-[2-(3-methoxymethylpiperidin-1-yl)ethyl]-6,7-dihydro-5H-benzo[5,6][1,4]diazepino[7,1-a]indole-10-carboxylic acid]", "values": [
      {"measurement": "IC50", "result": "< 100", "unit": "nM"}
    ]}
  ]
}
